# Data published in patent US20130296228A1, “EFFLUX PUMP INHIBITORS” (priority 2010, published 2013).
# Assays:
# outer membrane porins = details: Bacalum et al. 2009; cited from earlier work
# [1] = test system: MDR clinical isolate of P. aeruginosa 2301; assay: Systemic infection in mice, % survival; type: in vivo; details: for % survival: mice
# MDR P. aeruginosa = assay: Enhanced killing: viable count over time; type: cell-based
# Protocol: Table 4 results of efflux pump inhibition based cidal synergy between S-(−)-9-Fluoro-8-(4-hydroxy-piperidin-1-yl)-5-methyl-6,7-dihydro-1-oxo-1H,5H-benzo[i,j]quinolizine-2-carboxylic acid L-arginine salt tetrahydrate nd ceftazidime. Potent cidal synergy is observed between S-(−)-9-Fluoro-8-(4-hydroxy-piperidin-1-yl)-5-methyl-6,7-dihydro-1-oxo-1H,5H-benzo[i,j]quinolizine-2-carboxylic acid L-arginine salt tetrahydrate (concentration, 8 μg/ml) and ceftazidime (concentration, 8 and 16 μg/ml). These concentrations are at least 4 times lower than their MIC. […] Thus the efflux pump inhibition based synergy is not just growth inhibitory but also, most importantly, imparts extensive killing of the pathogen.
# [2] = test system: highly resistant P. aeruginosa strains; assay: MIC; type: cell-based; details: Pseudomonas aeruginosa; highly resistant P. aeruginosa strains used for infecting animals; read-out: MIC
# P. aeruginosa 23587 [3] = assay: Survival of high density inoculation in MHA medium; type: cell-based; details: high density inoculation 2-5 × 10^9 CFU/ml; 64 mcg/ml in MHA medium
# P. aeruginosa 2301 = assay: Survival of high density inoculation in MHA medium; type: cell-based; details: high density inoculation 2-5 × 10^9 CFU/ml; 20 mcg/ml in MHA medium
# Description: In a most surprising manner, the combination of ceftazidime and azithromycin and tigecycline respectively brought about more than 7 log reduction in the bacterial count as compared to individual effects in highly resistant Pseudomonas strain. Moreover in a very unusual and surprising manner this tremendous bactericidal effect is taking place at concentrations much below than their individual inhibitory concentrations. […] It is also likely that ceftazidime interacts with outer membrane porins and acts as a porin modulator. Bacalum et al. have shown that ceftazidime binds to outer membrane porins with high affinity (Bacalum et al. Romanian. J. Biophys., 19, 105-116, 2009).
# P. aeruginosa 23587 [4] = assay: Diameter of zone of inhibition of antimicrobial agents with or without efflux pump inhibitor; type: cell-based; details: clinical isolates of P. aeruginosa
# Description: Since RND efflux pumps operate by utilizing energy in […], metabolic inhibitor, sodium azide brings about MDR RND pump inhibition by causing energy deprivation.
smiles,measurement,setting,value
"CC(C)(O/N=C(\C(=O)N[C@@H]1C(=O)N2C(C(=O)[O-])=C(C[n+]3ccccc3)CS[C@H]12)c1csc(N)n1)C(=O)O [Ceftazidime, ceftazidime]",binding to outer membrane porins,outer membrane porins,high affinity
same,% survival,"[1]; Table 5, 300 mg/kg BID × 1 day, Subcutaneous",16.6%
same,% survival,"[1]; Table 7, 100 mg/kg BID × 1 day, Oral",16.6%
same,% survival,"[1]; Table 7, 200 mg/kg BID × 1 day, Oral",16.6%
same,"protection of infected animals, agent individually","[1]; quinolone arginine salt 50 mg/kg, ceftazidime 300 mg/kg",could not protect
same,viable count,"MDR P. aeruginosa; 8 μg/ml, 0 h",6.11 Log CFU/ ml
same,viable count,"MDR P. aeruginosa; 8 μg/ml, 24 h",8.64 Log CFU/ ml
same,viable count,"MDR P. aeruginosa; 8 μg/ml, 48 h",9.3 Log CFU/ ml
same,viable count,"MDR P. aeruginosa; 16 μg/ml, 0 h",6.11 Log CFU/ ml
same,viable count,"MDR P. aeruginosa; 16 μg/ml, 24 h",5.30 Log CFU/ ml
same,viable count,"MDR P. aeruginosa; 16 μg/ml, 48 h",9.2 Log CFU/ ml
same,killing effect of the agent individually,"MDR P. aeruginosa; quinolone arginine salt 8 μg/ml, ceftazidime 8 and 16 μg/ml",ineffective
same,MIC,[2],> 32 µg/mL
same,CFU/ml at 48 h,P. aeruginosa 23587 [3],>5 × 10^9 CFU/ml
same,CFU/ml at 48 h,P. aeruginosa 2301,>5 × 10^9 CFU/ml
same,"inhibition of MDR RND efflux pumps, concluded from potentiation",P. aeruginosa 23587 [4],inhibit RND pumps
